From PMC3077032 (Clinical cancer research : an official journal of the …, 2011)
Read-outs that look alike come from different tables or passages of the source.

Tests used:
[1] = in vivo
[2] = system: CYP3A4; details: cited from earlier work
[3] = clinical; details: human, plasma (sorafenib); sample for sirolimus not named, oral
[4] = for AUC, median relative difference (range) after initiation of combination therapy / Cmax, median relative difference (range) after initiation of combination therapy: combination with the interacting drug vs drug alone, n=6; for Ka, population estimate: one-compartment NONMEM model, n = 6 per drug
[5] = day 28 combination vs day 14 alone
[6] = cited from earlier work
[7] = daily oral dosing, phase I trial in cancer patients

Compound | AUC, median relative difference (range) after initiation of combination therapy [1] | Effect of inhibitors of CYP3A4 on pharmacokinetics [2] | Vd/F [3] [L] | AUC, median relative difference (range) after initiation of combination therapy [4] | Cmax, median relative difference (range) after initiation of combination therapy [4] [%] | Cmax, median relative difference (range) after initiation of combination therapy ([4]; listed as Sorafenib) | Ka, population estimate [4] [h⁻¹] | AUC, median relative difference (range) after initiation of combination therapy [5] | Cmax, median relative difference (range) after initiation of combination therapy [5] [%] | Cmax, median relative difference (range) after initiation of combination therapy ([5]; listed as Sirolimus) | Dose well tolerated [6, 7] [mg] | Maximum tolerated dose [6, 7] [mg] | Dose administered without dose limiting toxicity ([6]; weekly dosing, ongoing study at the University of Chicago) [mg] | Cmax, median relative difference (range) after initiation of combination therapy ([4]; listed as Sirolimus) | Cmax, median relative difference (range) after initiation of combination therapy ([5]; listed as Sunitinib)
CCNCCNC(=O)c1c(C)[nH]c(/C=C2\C(=O)Nc3ccc(F)cc32)c1C [SU12662] | 61.6 (−79.7, 1031.2) % | – | – | – | – | – | – | – | – | – | – | – | – | – | –
CNC(=O)c1cc(Oc2ccc(NC(=O)Nc3ccc(Cl)c(C(F)(F)F)c3)cc2)ccn1 [sorafenib, Sorafenib] | – | only modestly affected | 807 | 6.1 (−17.3, 22.0) % | −40.7 | −40.7 (−87.0, 351.2) % | 1.07 | – | – | – | – | – | – | – | –
CO[C@H]1C[C@@H]2CC[C@@H](C)[C@@](O)(O2)C(=O)C(=O)N2CCCC[C@H]2C(=O)O[C@H]([C@H](C)C[C@@H]2CC[C@@H](O)[C@H](OC)C2)CC(=O)[C@H](C)/C=C(\C)[C@@H](O)[C@@H](OC)C(=O)[C@H](C)C[C@H](C)/C=C/C=C/C=C/1C [sirolimus, Sirolimus] | – | – | 138 | 43.7 (10.5, 84.7) % | 3.9 | – | 2.01 | −47.7 (−75.4, 1394.8) % | −29.8 | −29.8 (−77.4, 28.8) % | 3 | 6 | 90 | 3.9 (1.3, 11.0) % | –
CCN(CC)CCNC(=O)c1c(C)[nH]c(/C=C2\C(=O)Nc3ccc(F)cc32)c1C [sunitinib, Sunitinib] | – | only modestly affected | – | – | – | – | – | 54.3 (−34.3, 232.8) % | 19.6 | – | – | – | – | – | 19.6 (−23.5, 45.4) %
